Experimental data reported in patent publication US20240131178A1, “ANTIBODY-DRUG CONJUGATE INCLUDING ANTIBODY AGAINST HUMAN CLDN18.2, AND USE THEREOF” (LEGOCHEM BIOSCIENCES, INC., priority 2021, published 2024).
Square brackets hold non-standard residues; d marks the D form. Peptide text beside a SMILES is read from it. * marks the point of attachment. Dolaproine = CO[C@@H]([C@@H]1CCCN1)[C@@H](C)C(=O)O; Dil = CC[C@H](C)[C@H](NC)[C@@H](CC(=O)O)OC; X1 = C[C@@H](N*)[C@@H](O)c1ccccc1; NMeV = CN[C@H](C(=O)O)C(C)C

Columns and labels:
Type in all cases: cell-based
Conditions in all cases: 144 hours, SRB dye
[1] = system: gastric cancer cell line NUGC-4; test: In vitro cytotoxicity (cell proliferation inhibition), NUGC-4
Protocol: (§1) The cell proliferation inhibitory activity of drugs shown in Table 4 and the ADCs was measured. Gastric cancer cell lines NUGC-4, SNU-601, and SNU-602, and a pancreatic cancer cell line PATU-8988s, which are commercially available as cancer cell lines, were used, and normal cell lines HaCaT, Fa2N-4, HK-2, and HS738.st/Int were used. As for test groups treated with each cancer cell line for 144 hours, cells were seeded into a 96-well plate at the rate of 2,500 cells/well to 10,000 cells/well and cultured for 24 hours, and then each cancer cell line was treated with each drug and each ADC at a concentration of 0.256 pM to 100 nM (5-fold serial diltuion), and each normal cell line was treated with each drug and each ADC at a concentration of 2.56 pM to 1,000 nM (5-fold serial dilution). The number of cells survived after 144 hours was quantified using a sulforhodamine B (SRB) dye, and the cell line Hs738.st/Int was quantified using Cell titer glo.

[2] = system: pancreatic cancer cell line PATU-8988s; test: In vitro cytotoxicity (cell proliferation inhibition), PATU-8988s
Protocol: as §1

[3] = system: gastric cancer cell line SNU-620; test: In vitro cytotoxicity (cell proliferation inhibition), SNU-620
normal cell line HK-2 = test: In vitro cytotoxicity, normal cell line HK-2
Protocol: as §1

[4] = system: gastric cancer cell line SNU-601; test: In vitro cytotoxicity (cell proliferation inhibition), SNU-601
Protocol: as §1

normal cell line HaCaT = test: In vitro cytotoxicity, normal cell line HaCaT
Protocol: as §1

normal cell line Fa2N-4 = test: In vitro cytotoxicity, normal cell line Fa2N-4
Protocol: as §1

## CC[C@H](C)[C@@H]([C@@H](CC(=O)N1CCC[C@H]1[C@H](OC)[C@@H](C)C(=O)N[C@H](C)[C@@H](O)c1ccccc1)OC)N(C)C(=O)[C@@H](NC(=O)[C@@H](NC)C(C)C)C(C)C [MMAE, monomethyl auristatin E] (H-[NMeV]V[Dil][Dolaproine]-X1)
[1]
  IC50: 0.29 nM
[2]
  IC50: 0.145 nM
[3]
  IC50: 0.71 nM
Normal cell line HK-2
  IC50: 21.9 nM
[4]
  IC50: 0.51 nM
Normal cell line HaCaT
  IC50: 0.14 nM
Normal cell line Fa2N-4
  IC50: 3 nM

## C=C1C[C@H]2C=Nc3cc(OCCCCCOc4cc5c(cc4OC)C(=O)N4CC(=C)C[C@H]4C=N5)c(OC)cc3C(=O)N2C1 [SG2057]
[1]
  IC50: 0.03 nM
[3]
  IC50: 0.097 nM
[4]
  IC50: 0.003 nM
